# Test results taken from the kinase profiling compilation of Christmann-Franck et al. (2016).
# Experiments:
# Assay in all cases: radiometric filter-binding kinase assay
# SIK3 (human) = SIK3 (human) (UniProt Q9Y2K2)
# [1] = system: OXSR1 (human), O95747 [T185E]
# SRPK1 (human) = SRPK1 (human) (UniProt Q96SB4)
# PTK6 (human) = PTK6 (human) (UniProt Q13882)
# TTBK2 (human) = TTBK2 (human) (UniProt Q6IQ55)
# CDK9 CCNT1 (human) = CDK9 CCNT1 (human) (UniProt P50750+O60563)
# WNK1 (human) = WNK1 (human) (UniProt Q9H4A3)
# STK16 (human) = STK16 (human) (UniProt O75716)
# STK24 (human) = STK24 (human) (UniProt Q9Y6E0)
# STK24 (human), sequence (Q9Y6E0 whole entry, looked up): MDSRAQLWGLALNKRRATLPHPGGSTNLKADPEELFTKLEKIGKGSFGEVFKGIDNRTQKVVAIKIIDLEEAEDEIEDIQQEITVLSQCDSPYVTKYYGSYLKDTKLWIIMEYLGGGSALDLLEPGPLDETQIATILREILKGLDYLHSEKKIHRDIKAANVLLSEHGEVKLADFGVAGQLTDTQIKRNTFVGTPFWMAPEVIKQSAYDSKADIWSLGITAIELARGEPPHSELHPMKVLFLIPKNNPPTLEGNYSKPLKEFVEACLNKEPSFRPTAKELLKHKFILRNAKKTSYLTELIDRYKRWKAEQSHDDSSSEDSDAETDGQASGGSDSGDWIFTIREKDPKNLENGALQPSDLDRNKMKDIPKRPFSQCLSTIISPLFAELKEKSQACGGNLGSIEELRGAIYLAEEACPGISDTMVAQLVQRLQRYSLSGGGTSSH
# DDR2 (human) = DDR2 (human) (UniProt Q16832)
# [2] = molecular target: PRKAA1 PRKAB2 PRKAG1 (human) (UniProt O43741+Q13131+P54619)
# EIF2AK3 (human) = EIF2AK3 (human) (UniProt Q9NZJ5)
# IRAK1 (human) = IRAK1 (human) (UniProt P51617)
# IRAK1 (human), sequence (P51617 whole entry, looked up): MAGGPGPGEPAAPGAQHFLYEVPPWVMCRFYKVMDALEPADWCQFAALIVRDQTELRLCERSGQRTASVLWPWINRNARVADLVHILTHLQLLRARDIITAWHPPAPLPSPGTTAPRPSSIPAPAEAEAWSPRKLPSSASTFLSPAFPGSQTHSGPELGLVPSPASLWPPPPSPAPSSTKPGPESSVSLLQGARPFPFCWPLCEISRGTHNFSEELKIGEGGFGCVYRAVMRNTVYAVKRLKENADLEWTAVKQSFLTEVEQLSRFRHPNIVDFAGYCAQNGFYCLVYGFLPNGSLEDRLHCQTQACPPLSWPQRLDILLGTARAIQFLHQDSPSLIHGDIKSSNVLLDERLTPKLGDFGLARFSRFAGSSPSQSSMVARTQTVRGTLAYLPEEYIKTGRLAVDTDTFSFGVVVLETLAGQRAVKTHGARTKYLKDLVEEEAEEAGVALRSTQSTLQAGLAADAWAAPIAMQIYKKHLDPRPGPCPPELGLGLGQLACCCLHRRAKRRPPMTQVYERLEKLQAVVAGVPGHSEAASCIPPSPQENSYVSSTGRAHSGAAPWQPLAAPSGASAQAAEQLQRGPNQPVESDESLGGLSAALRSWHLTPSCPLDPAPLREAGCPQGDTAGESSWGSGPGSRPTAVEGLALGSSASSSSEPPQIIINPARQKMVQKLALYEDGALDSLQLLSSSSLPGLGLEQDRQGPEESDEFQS
# TTBK1 (human) = TTBK1 (human) (UniProt Q5TCY1)
# MAP4K5 (human) = MAP4K5 (human) (UniProt Q9Y4K4)
# ULK1 (human) = ULK1 (human) (UniProt O75385)
# ULK1 (human), sequence (O75385 whole entry, looked up): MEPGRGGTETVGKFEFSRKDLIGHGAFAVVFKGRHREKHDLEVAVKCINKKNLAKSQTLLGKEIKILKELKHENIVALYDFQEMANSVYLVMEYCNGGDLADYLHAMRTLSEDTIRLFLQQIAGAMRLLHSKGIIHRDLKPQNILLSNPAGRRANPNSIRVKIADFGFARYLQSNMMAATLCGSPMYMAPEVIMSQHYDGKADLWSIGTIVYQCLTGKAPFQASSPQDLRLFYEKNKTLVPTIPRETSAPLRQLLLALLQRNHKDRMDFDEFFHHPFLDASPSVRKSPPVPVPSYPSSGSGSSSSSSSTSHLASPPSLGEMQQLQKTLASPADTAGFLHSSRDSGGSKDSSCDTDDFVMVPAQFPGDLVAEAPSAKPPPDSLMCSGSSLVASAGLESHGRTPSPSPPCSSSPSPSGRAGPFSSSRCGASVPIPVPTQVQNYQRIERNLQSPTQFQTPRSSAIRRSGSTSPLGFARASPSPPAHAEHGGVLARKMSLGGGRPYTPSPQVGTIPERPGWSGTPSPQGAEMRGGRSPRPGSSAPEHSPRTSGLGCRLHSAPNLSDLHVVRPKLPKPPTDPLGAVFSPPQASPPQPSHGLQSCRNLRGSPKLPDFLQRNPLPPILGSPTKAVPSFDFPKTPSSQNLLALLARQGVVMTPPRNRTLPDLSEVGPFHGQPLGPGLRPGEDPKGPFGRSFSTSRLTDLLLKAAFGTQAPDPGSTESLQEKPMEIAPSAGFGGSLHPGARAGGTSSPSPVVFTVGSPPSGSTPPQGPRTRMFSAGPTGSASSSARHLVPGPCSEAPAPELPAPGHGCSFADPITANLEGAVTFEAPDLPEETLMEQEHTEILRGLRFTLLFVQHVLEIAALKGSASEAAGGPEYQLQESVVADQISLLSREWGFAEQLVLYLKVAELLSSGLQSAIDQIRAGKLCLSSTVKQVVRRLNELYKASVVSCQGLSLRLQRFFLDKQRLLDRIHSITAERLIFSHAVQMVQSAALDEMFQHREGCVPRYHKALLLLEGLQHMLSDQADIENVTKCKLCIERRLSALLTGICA
# TESK1 (human) = TESK1 (human) (UniProt Q15569)
# TEK (human) = TEK (human) (UniProt Q02763)
# ZAP70 (human) = ZAP70 (human) (UniProt P43403)
# TSSK1B (human) = TSSK1B (human) (UniProt Q9BXA7)
# TSSK1B (human), sequence (Q9BXA7 whole entry, looked up): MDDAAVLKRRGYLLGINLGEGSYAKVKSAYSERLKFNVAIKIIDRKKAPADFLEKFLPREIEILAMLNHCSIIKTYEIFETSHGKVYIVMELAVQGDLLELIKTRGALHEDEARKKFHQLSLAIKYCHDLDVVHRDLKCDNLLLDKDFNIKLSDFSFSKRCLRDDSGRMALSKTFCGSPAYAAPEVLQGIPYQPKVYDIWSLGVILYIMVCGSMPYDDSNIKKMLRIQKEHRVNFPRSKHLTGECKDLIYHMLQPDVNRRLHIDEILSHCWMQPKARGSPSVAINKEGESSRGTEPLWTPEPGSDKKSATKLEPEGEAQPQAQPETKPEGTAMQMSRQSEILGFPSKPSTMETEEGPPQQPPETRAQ
# TLK1 (human) = TLK1 (human) (UniProt Q9UKI8)
# STK33 (human) = STK33 (human) (UniProt Q9BYT3)
# PDGFRA (human) = PDGFRA (human) (UniProt P16234)
# GSK3B (human) = GSK3B (human) (UniProt P49841)
# GSK3B (human), sequence (P49841 whole entry, looked up): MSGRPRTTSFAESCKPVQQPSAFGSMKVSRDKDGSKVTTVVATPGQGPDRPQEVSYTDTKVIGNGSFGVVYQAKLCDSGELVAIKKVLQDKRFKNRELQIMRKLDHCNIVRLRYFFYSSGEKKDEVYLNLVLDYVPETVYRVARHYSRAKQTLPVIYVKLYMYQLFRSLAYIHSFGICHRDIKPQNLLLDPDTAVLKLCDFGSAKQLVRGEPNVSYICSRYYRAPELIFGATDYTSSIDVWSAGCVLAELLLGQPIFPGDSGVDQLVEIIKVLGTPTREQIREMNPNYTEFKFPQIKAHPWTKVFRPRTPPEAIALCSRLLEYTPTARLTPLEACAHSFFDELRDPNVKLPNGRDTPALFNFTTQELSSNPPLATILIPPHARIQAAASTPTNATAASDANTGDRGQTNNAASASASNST
# CSNK1G2 (human) = CSNK1G2 (human) (UniProt P78368)
# CSNK1G2 (human), sequence (P78368 whole entry, looked up): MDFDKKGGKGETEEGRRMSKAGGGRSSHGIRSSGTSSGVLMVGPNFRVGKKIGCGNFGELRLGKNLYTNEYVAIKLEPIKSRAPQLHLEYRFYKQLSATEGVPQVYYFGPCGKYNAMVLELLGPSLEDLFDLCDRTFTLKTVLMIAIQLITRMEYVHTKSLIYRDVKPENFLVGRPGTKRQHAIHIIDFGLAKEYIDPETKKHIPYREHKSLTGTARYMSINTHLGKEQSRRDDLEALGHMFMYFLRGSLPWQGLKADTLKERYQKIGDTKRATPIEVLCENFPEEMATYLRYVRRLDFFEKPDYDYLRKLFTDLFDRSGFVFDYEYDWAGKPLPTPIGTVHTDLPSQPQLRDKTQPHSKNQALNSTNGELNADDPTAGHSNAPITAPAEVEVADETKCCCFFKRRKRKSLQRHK
# ABL1 (human) = ABL1 (human) (UniProt P00519)
# MAP4K3 (human) = MAP4K3 (human) (UniProt Q8IVH8)
# MAP4K3 (human), sequence (Q8IVH8 whole entry, looked up): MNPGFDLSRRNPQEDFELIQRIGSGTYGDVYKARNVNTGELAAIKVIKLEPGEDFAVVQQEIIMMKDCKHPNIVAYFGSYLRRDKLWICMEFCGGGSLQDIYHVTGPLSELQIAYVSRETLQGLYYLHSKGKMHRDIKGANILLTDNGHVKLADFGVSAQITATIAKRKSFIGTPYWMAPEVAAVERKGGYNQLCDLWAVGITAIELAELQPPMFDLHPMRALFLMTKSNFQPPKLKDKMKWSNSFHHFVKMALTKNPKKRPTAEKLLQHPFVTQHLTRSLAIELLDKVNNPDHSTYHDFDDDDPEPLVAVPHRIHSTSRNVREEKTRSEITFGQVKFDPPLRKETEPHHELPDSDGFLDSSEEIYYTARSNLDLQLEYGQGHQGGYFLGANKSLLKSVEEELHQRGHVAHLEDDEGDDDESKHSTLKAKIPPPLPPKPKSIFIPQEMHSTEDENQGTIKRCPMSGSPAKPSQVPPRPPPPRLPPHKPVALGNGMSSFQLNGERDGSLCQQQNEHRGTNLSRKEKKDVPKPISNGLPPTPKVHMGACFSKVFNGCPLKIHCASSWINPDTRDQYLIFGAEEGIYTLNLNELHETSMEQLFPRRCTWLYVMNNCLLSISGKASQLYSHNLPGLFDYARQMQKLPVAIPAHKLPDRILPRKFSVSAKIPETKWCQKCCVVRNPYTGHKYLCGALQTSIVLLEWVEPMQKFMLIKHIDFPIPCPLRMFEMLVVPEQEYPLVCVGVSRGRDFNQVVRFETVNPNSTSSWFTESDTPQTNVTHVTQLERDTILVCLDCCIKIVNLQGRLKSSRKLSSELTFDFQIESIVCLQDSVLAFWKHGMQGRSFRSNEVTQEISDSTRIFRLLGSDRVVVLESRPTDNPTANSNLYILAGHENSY
# SIK2 (human) = SIK2 (human) (UniProt Q9H0K1)
# ULK2 (human) = ULK2 (human) (UniProt Q8IYT8)
# PRKCG (human) = PRKCG (human) (UniProt P05129)
# SRPK1 (human), sequence (Q96SB4 whole entry, looked up): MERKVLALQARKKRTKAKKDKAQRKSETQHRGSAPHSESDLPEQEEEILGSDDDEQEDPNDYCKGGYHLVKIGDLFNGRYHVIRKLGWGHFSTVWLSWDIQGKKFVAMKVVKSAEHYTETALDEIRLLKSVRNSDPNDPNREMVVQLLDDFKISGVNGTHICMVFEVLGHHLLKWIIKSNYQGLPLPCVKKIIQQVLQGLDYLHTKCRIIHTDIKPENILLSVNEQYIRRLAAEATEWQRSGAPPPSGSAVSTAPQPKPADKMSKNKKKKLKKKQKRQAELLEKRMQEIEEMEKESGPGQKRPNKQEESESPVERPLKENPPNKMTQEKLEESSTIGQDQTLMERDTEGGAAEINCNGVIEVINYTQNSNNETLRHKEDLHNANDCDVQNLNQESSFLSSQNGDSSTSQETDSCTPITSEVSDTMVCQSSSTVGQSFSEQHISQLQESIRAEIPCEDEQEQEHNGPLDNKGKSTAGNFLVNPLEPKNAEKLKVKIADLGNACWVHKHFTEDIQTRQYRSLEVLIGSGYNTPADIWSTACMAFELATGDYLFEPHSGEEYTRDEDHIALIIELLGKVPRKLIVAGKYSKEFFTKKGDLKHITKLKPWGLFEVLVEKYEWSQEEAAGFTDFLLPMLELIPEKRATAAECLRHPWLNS
smiles,measurement,setting,value
CC1=C(CO)C(=O)O[C@@H]([C@@H](C)[C@H]2CC[C@H]3[C@@H]4C[C@H]5O[C@]56[C@@H](O)C=CC(=O)[C@]6(C)C4CC[C@]23C)C1 (stereo not given in full),residual activity,SIK3 (human); compound 0.1 µM,105%
same,residual activity,SIK3 (human); compound 1.0 µM,106%
same,residual activity,SIK3 (human); compound 10.0 µM,94%
same,residual activity,[1]; compound 0.1 µM,128%
same,residual activity,[1]; compound 1.0 µM,109%
same,residual activity,[1]; compound 10.0 µM,125%
same,residual activity,SRPK1 (human); compound 0.1 µM,89%
same,residual activity,SRPK1 (human); compound 1.0 µM,86%
same,residual activity,SRPK1 (human); compound 10.0 µM,63%
same,residual activity,PTK6 (human); compound 0.1 µM,109%
same,residual activity,PTK6 (human); compound 1.0 µM,123%
same,residual activity,TTBK2 (human); compound 0.1 µM,108%
same,residual activity,TTBK2 (human); compound 1.0 µM,105%
same,residual activity,TTBK2 (human); compound 10.0 µM,112%
same,residual activity,CDK9 CCNT1 (human); compound 0.1 µM,94%
same,residual activity,CDK9 CCNT1 (human); compound 1.0 µM,97%
same,residual activity,CDK9 CCNT1 (human); compound 10.0 µM,107%
same,residual activity,WNK1 (human); compound 0.1 µM,117%
same,residual activity,WNK1 (human); compound 1.0 µM,111%
same,residual activity,WNK1 (human); compound 10.0 µM,113%
same,residual activity,STK16 (human); compound 10.0 µM,126%
same,residual activity,STK24 (human); compound 0.1 µM,111%
same,residual activity,STK24 (human); compound 1.0 µM,126%
same,residual activity,STK24 (human); compound 10.0 µM,133%
same,residual activity,DDR2 (human); compound 0.1 µM,105%
same,residual activity,DDR2 (human); compound 1.0 µM,100%
same,residual activity,DDR2 (human); compound 10.0 µM,94%
same,residual activity,[2]; compound 0.1 µM,107%
same,residual activity,[2]; compound 1.0 µM,120%
same,residual activity,[2]; compound 10.0 µM,112%
same,residual activity,EIF2AK3 (human); compound 0.1 µM,129%
same,residual activity,EIF2AK3 (human); compound 1.0 µM,108%
same,residual activity,EIF2AK3 (human); compound 10.0 µM,115%
same,residual activity,IRAK1 (human); compound 0.1 µM,101%
same,residual activity,IRAK1 (human); compound 1.0 µM,99%
same,residual activity,IRAK1 (human); compound 10.0 µM,100%
same,residual activity,TTBK1 (human); compound 0.1 µM,100%
same,residual activity,TTBK1 (human); compound 1.0 µM,118%
same,residual activity,TTBK1 (human); compound 10.0 µM,95%
same,residual activity,MAP4K5 (human); compound 0.1 µM,106%
same,residual activity,MAP4K5 (human); compound 1.0 µM,110%
same,residual activity,MAP4K5 (human); compound 10.0 µM,94%
same,residual activity,ULK1 (human); compound 0.1 µM,108%
same,residual activity,ULK1 (human); compound 1.0 µM,115%
same,residual activity,ULK1 (human); compound 10.0 µM,111%
same,residual activity,TESK1 (human); compound 0.1 µM,109%
same,residual activity,TESK1 (human); compound 1.0 µM,114%
same,residual activity,TESK1 (human); compound 10.0 µM,104%
same,residual activity,TEK (human); compound 1.0 µM,98%
same,residual activity,TEK (human); compound 10.0 µM,83%
same,residual activity,ZAP70 (human); compound 1.0 µM,113%
same,residual activity,TSSK1B (human); compound 0.1 µM,100%
same,residual activity,TSSK1B (human); compound 1.0 µM,102%
same,residual activity,TSSK1B (human); compound 10.0 µM,78%
same,residual activity,TLK1 (human); compound 0.1 µM,101%
same,residual activity,TLK1 (human); compound 1.0 µM,103%
same,residual activity,TLK1 (human); compound 10.0 µM,98%
same,residual activity,STK33 (human); compound 0.1 µM,116%
same,residual activity,STK33 (human); compound 10.0 µM,120%
same,residual activity,PDGFRA (human); compound 1.0 µM,117%
same,residual activity,PDGFRA (human); compound 10.0 µM,121%
same,residual activity,GSK3B (human); compound 0.1 µM,114%
same,residual activity,GSK3B (human); compound 1.0 µM,124%
same,residual activity,GSK3B (human); compound 10.0 µM,127%
same,residual activity,CSNK1G2 (human); compound 0.1 µM,109%
same,residual activity,CSNK1G2 (human); compound 1.0 µM,104%
same,residual activity,CSNK1G2 (human); compound 10.0 µM,103%
same,residual activity,ABL1 (human); compound 0.1 µM,101%
same,residual activity,ABL1 (human); compound 1.0 µM,110%
same,residual activity,ABL1 (human); compound 10.0 µM,106%
same,residual activity,MAP4K3 (human); compound 0.1 µM,81%
same,residual activity,MAP4K3 (human); compound 1.0 µM,85%
same,residual activity,MAP4K3 (human); compound 10.0 µM,84%
same,residual activity,SIK2 (human); compound 0.1 µM,82%
same,residual activity,SIK2 (human); compound 1.0 µM,78%
same,residual activity,SIK2 (human); compound 10.0 µM,66%
same,residual activity,ULK2 (human); compound 0.1 µM,92%
same,residual activity,ULK2 (human); compound 1.0 µM,96%
same,residual activity,ULK2 (human); compound 10.0 µM,90%
same,residual activity,PRKCG (human); compound 0.1 µM,119%
same,residual activity,PRKCG (human); compound 1.0 µM,112%
same,residual activity,PRKCG (human); compound 10.0 µM,102%
C=C1C(=O)OC2C1CC/C(C)=C/CCC1(C)OC21 (stereo not given),residual activity,SIK3 (human); compound 1.0 µM,110%
same,residual activity,SIK3 (human); compound 5.0 µM,104%
same,residual activity,[1]; compound 1.0 µM,115%
same,residual activity,SRPK1 (human); compound 1.0 µM,111%
same,residual activity,SRPK1 (human); compound 5.0 µM,106%
same,residual activity,PTK6 (human); compound 1.0 µM,107%
same,residual activity,PTK6 (human); compound 5.0 µM,120%
same,residual activity,TTBK2 (human); compound 1.0 µM,125%
same,residual activity,TTBK2 (human); compound 5.0 µM,100%
same,residual activity,CDK9 CCNT1 (human); compound 1.0 µM,119%
same,residual activity,CDK9 CCNT1 (human); compound 5.0 µM,101%
same,residual activity,WNK1 (human); compound 1.0 µM,112%
same,residual activity,WNK1 (human); compound 5.0 µM,100%
same,residual activity,STK16 (human); compound 1.0 µM,121%
same,residual activity,STK16 (human); compound 5.0 µM,106%
same,residual activity,STK24 (human); compound 1.0 µM,101%
same,residual activity,STK24 (human); compound 5.0 µM,88%
same,residual activity,DDR2 (human); compound 1.0 µM,105%
same,residual activity,DDR2 (human); compound 5.0 µM,107%
same,residual activity,[2]; compound 1.0 µM,111%
same,residual activity,[2]; compound 5.0 µM,107%
same,residual activity,EIF2AK3 (human); compound 1.0 µM,111%
same,residual activity,EIF2AK3 (human); compound 5.0 µM,123%
same,residual activity,IRAK1 (human); compound 1.0 µM,96%
same,residual activity,IRAK1 (human); compound 5.0 µM,102%
same,residual activity,TTBK1 (human); compound 1.0 µM,110%
same,residual activity,TTBK1 (human); compound 5.0 µM,103%
same,residual activity,MAP4K5 (human); compound 1.0 µM,116%
same,residual activity,MAP4K5 (human); compound 5.0 µM,97%
same,residual activity,ULK1 (human); compound 1.0 µM,104%
same,residual activity,ULK1 (human); compound 5.0 µM,110%
same,residual activity,TESK1 (human); compound 1.0 µM,106%
same,residual activity,TESK1 (human); compound 5.0 µM,112%
same,residual activity,TEK (human); compound 1.0 µM,99%
same,residual activity,TEK (human); compound 5.0 µM,80%
same,residual activity,ZAP70 (human); compound 1.0 µM,99%
same,residual activity,ZAP70 (human); compound 5.0 µM,104%
same,residual activity,TSSK1B (human); compound 1.0 µM,103%
same,residual activity,TSSK1B (human); compound 5.0 µM,93%
same,residual activity,TLK1 (human); compound 1.0 µM,108%
same,residual activity,TLK1 (human); compound 5.0 µM,115%
same,residual activity,STK33 (human); compound 1.0 µM,117%
same,residual activity,STK33 (human); compound 5.0 µM,102%
same,residual activity,PDGFRA (human); compound 5.0 µM,109%
same,residual activity,GSK3B (human); compound 1.0 µM,106%
same,residual activity,GSK3B (human); compound 5.0 µM,105%
same,residual activity,CSNK1G2 (human); compound 1.0 µM,124%
same,residual activity,CSNK1G2 (human); compound 5.0 µM,101%
same,residual activity,ABL1 (human); compound 1.0 µM,119%
same,residual activity,ABL1 (human); compound 5.0 µM,110%
same,residual activity,MAP4K3 (human); compound 1.0 µM,95%
same,residual activity,MAP4K3 (human); compound 5.0 µM,88%
same,residual activity,SIK2 (human); compound 1.0 µM,108%
same,residual activity,SIK2 (human); compound 5.0 µM,93%
same,residual activity,ULK2 (human); compound 1.0 µM,96%
same,residual activity,ULK2 (human); compound 5.0 µM,121%
same,residual activity,PRKCG (human); compound 1.0 µM,120%
same,residual activity,PRKCG (human); compound 5.0 µM,121%
